These results are taken from patent publication US8426422B2, “Apoptosis-inducing agents for the treatment of cancer and immune and autoimmune diseases” (Abbvie Inc., priority 2009, dated 2013).

GST-Bcl-2, sequence (P10415 whole entry): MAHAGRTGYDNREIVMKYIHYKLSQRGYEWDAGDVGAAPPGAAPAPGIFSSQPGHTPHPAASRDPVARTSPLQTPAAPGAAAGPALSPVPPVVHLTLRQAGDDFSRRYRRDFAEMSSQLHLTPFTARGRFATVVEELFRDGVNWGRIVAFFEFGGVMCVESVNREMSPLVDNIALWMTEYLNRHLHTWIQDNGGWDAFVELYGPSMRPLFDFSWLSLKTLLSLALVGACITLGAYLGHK

The test concerns the target GST-Bcl-2 (Homo sapiens, UniProt P10415). Briefly: Time Resolved-Fluorescence Resonance Energy Transfer (TR-FRET) Bcl-2 binding assay. The conditions noted are these: GST-Bcl-2 1 nM, F-Bak peptide probe 100 nM, Tb-anti-GST 1 nM; 3 hours at room temperature; Ki by Wang's equation. The method, then: Determination of the utility of compounds having Formula (I) as binders to and inhibitors of anti-apoptotic Bcl-2 proteins was performed using the Time Resolved-Fluorescence Resonance Energy Transfer (TR-FRET) Assay. Tb-anti-GST antibody was purchased from Invitrogen (Catalog No. PV4216).
Representative compounds were serially diluted in dimethyl sulfoxide (DMSO) starting at 50 μM (2x starting concentration; 10% DMSO) and 10 μL were transferred into a 384-well plate. The samples are then mixed on a shaker for 1 minute and incubated for an additional 3 hours at room temperature. For each assay, the probe/antibody and protein/probe/antibody were included on each assay plate as negative and positive controls, respectively. Fluorescence was measured on the ENVISION plate reader (Perkin Elmer) using a 340/35 nm excitation filter and 520/525 (F-Bak peptide) and 495/510 nm (Tb-labeled […] antibody) emission filters. Inhibition constants (Ki) are shown in TABLE 2 below and were determined using Wang's equation (Wang Z.-X. An Exact Mathematical Expression For Describing Competitive Binding Of Two Different Ligands To A Protein Molecule. FEBS Lett. 1995, 360:111-4).
The inhibition constant (Ki) is the dissociation constant of an enzyme-inhibitor complex or a protein/small molecule complex, wherein the small molecule is inhibiting binding of one protein to another protein. So a large Ki value indicates a low binding affinity and a small Ki value indicates a high binding affinity.
The compounds are therefore expected to have utility in treatment of diseases during which anti-apoptotic Bcl-2 protein is expressed.
As to `O=C(NS(=O)(=O)c1cccc([N+](=O)[O-])c1)c1ccc(N2CCN(Cc3ccccc3-c3ccc(Cl)cc3)CC2)cc1` [Example 5, 4-{4-[(4′-chloro-1,1′-biphenyl-2-yl)methyl]piperazin-1-yl}-N-[(3-nitrophenyl)sulfonyl]benzamide], the Ki worked out at 0.185 µM.
The value for `O=C(NS(=O)(=O)c1ccccc1)c1ccc(N2CCN(Cc3ccccc3-c3ccc(Cl)cc3)CC2)cc1` [Example 6, 4-{4-[(4′-chloro-1,1′-biphenyl-2-yl)methyl]piperazin-1-yl}-N-(phenylsulfonyl)benzamide] was 0.212 µM; that for `O=C(NS(=O)(=O)c1cccc([N+](=O)[O-])c1)c1ccc(N2CCN(Cc3ccccc3-c3ccc(Cl)cc3)CC2)cc1OCCc1ccccc1` [Example 8, 4-{4-[(4′-chloro-1,1′-biphenyl-2-yl)methyl]piperazin-1-yl}-N-[(3-nitrophenyl)sulfonyl]-2-(2-phenylethoxy)benzamide] was 0.975 µM; that for `O=C(NS(=O)(=O)c1cccc([N+](=O)[O-])c1)c1ccc(N2CCN(Cc3ccccc3-c3ccc(Cl)cc3)CC2)cc1Oc1ccccc1` [Example 9, 4-{4-[(4′-chloro-1,1′-biphenyl-2-yl)methyl]piperazin-1-yl}-N-[(3-nitrophenyl)sulfonyl]-2-phenoxybenzamide] was 0.0265 µM.
`O=C(NS(=O)(=O)c1ccc(Br)cc1)c1ccc(N2CCN(Cc3ccccc3-c3ccc(Cl)cc3)CC2)cc1` [Example 11, N-[(4-bromophenyl)sulfonyl]-4-{4-[(4′-chloro-1,1′-biphenyl-2-yl)methyl]piperazin-1-yl}benzamide] yielded a Ki of 0.208 µM.
For `O=C(NS(=O)(=O)c1cccc([N+](=O)[O-])c1)c1ccc(N2CCN(Cc3ccccc3-c3ccc(Cl)cc3)CC2)cc1Sc1ccccc1` [Example 13, 4-{4-[(4′-chloro-1,1′-biphenyl-2-yl)methyl]piperazin-1-yl}-N-[(3-nitrophenyl)sulfonyl]-2-(phenylthio)benzamide] the value was 0.0729 µM; for `O=C(NS(=O)(=O)c1cccc([N+](=O)[O-])c1)c1ccc(N2CCN(Cc3ccccc3-c3ccc(Cl)cc3)CC2)cc1NCc1ccccc1` [Example 14, 2-(benzylamino)-4-{4-[(4′-chloro-1,1′-biphenyl-2-yl)methyl]piperazin-1-yl}-N-[(3-nitrophenyl)sulfonyl]benzamide], 0.749 µM; for `O=C(NS(=O)(=O)c1cccc([N+](=O)[O-])c1)c1ccc(N2CCN(Cc3ccccc3-c3ccc(Cl)cc3)CC2)cc1Cc1ccccc1` [Example 15, 2-benzyl-4-{4-[(4′-chloro-1,1′-biphenyl-2-yl)methyl]piperazin-1-yl}-N-[(3-nitrophenyl)sulfonyl]benzamide], 0.048 µM.
For `O=C(NS(=O)(=O)c1ccc([N+](=O)[O-])cc1)c1ccc(N2CCN(Cc3ccccc3-c3ccc(Cl)cc3)CC2)cc1` [Example 16, 4-{4-[(4′-chloro-1,1′-biphenyl-2-yl)methyl]piperazin-1-yl}-N-[(4-nitrophenyl)sulfonyl]benzamide] the value was 0.273 µM; for `O=C(NS(=O)(=O)c1cccc([N+](=O)[O-])c1)c1ccc(N2CCN(Cc3ccccc3-c3ccc(Cl)cc3)CC2)cc1CCc1ccccc1` [Example 18, 4-{4-[(4′-chloro-1,1′-biphenyl-2-yl)methyl]piperazin-1-yl}-N-[(3-nitrophenyl)sulfonyl]-2-(2-phenylethyl)benzamide], 0.746 µM; for `O=C(NS(=O)(=O)c1ccc(F)cc1)c1ccc(N2CCN(Cc3ccccc3-c3ccc(Cl)cc3)CC2)cc1` [Example 19, 4-{4-[(4′-chloro-1,1′-biphenyl-2-yl)methyl]piperazin-1-yl}-N-[(4-fluorophenyl)sulfonyl]benzamide], 0.403 µM.
With `O=C(NS(=O)(=O)c1cccc(F)c1)c1ccc(N2CCN(Cc3ccccc3-c3ccc(Cl)cc3)CC2)cc1` [Example 20, 4-{4-[(4′-chloro-1,1′-biphenyl-2-yl)methyl]piperazin-1-yl}-N-[(3-fluorophenyl)sulfonyl]benzamide], the Ki is 0.28 µM.
The value for `O=C(NS(=O)(=O)c1cccc([N+](=O)[O-])c1)c1ccc(N2CCN(Cc3ccccc3-c3ccc(Cl)cc3)CC2)cc1[S+]([O-])c1ccccc1` (stereo not shown) [Example 21, 4-{4-[(4′-chloro-1,1′-biphenyl-2-yl)methyl]piperazin-1-yl}-N-[(3-nitrophenyl)sulfonyl]-2-(phenylsulfinyl)benzamide] was 0.0873 µM; that for `O=C(NS(=O)(=O)c1ccc([N+](=O)[O-])cc1)c1ccc(N2CCN(Cc3ccccc3-c3ccc(Cl)cc3)CC2)cc1Oc1ccccc1` [Example 22, 4-{4-[(4′-chloro-1,1′-biphenyl-2-yl)methyl]piperazin-1-yl}-N-[(4-nitrophenyl)sulfonyl]-2-phenoxybenzamide] was 0.0173 µM.
For `O=C(NS(=O)(=O)c1cccc(F)c1)c1ccc(N2CCN(Cc3ccccc3-c3ccc(Cl)cc3)CC2)cc1Oc1ccccc1` [Example 23, 4-{4-[(4′-chloro-1,1′-biphenyl-2-yl)methyl]piperazin-1-yl}-N-[(3-fluorophenyl)sulfonyl]-2-phenoxybenzamide] the value was 0.0273 µM; for `O=C(NS(=O)(=O)c1ccc(F)cc1)c1ccc(N2CCN(Cc3ccccc3-c3ccc(Cl)cc3)CC2)cc1Oc1ccccc1` [Example 24, 4-{4-[(4′-chloro-1,1′-biphenyl-2-yl)methyl]piperazin-1-yl}-N-[(4-fluorophenyl)sulfonyl]-2-phenoxybenzamide], 0.0103 µM; for `O=C(NS(=O)(=O)c1cccc([N+](=O)[O-])c1)c1ccc(N2CCN(Cc3ccccc3-c3ccc(Cl)cc3)CC2)cc1S(=O)(=O)c1ccccc1` [Example 26, 4-{4-[(4′-chloro-1,1′-biphenyl-2-yl)methyl]piperazin-1-yl}-N-[(3-nitrophenyl)sulfonyl]-2-(phenylsulfonyl)benzamide], 0.627 µM.
For `O=C(NS(=O)(=O)c1ccc(Cl)c([N+](=O)[O-])c1)c1ccc(N2CCN(Cc3ccccc3-c3ccc(Cl)cc3)CC2)cc1Oc1ccccc1` [Example 27, 4-{4-[(4′-chloro-1,1′-biphenyl-2-yl)methyl]piperazin-1-yl}-N-[(4-chloro-3-nitrophenyl)sulfonyl]-2-phenoxybenzamide] the value was 0.00416 µM; for `CN(C)CCOc1cccc(-c2ccc(Cl)cc2)c1CN1CCN(c2ccc(C(=O)NS(=O)(=O)c3cccc([N+](=O)[O-])c3)c(Oc3cccc4[nH]ccc34)c2)CC1` [Example 28, 4-[4-({4′-chloro-3-[2-(dimethylamino)ethoxy]-1,1′-biphenyl-2-yl}methyl)piperazin-1-yl]-2-(1H-indol-4-yloxy)-N-[(3-nitrophenyl)sulfonyl]benzamide], 0.000125 µM; for `CN(C)CCOc1cccc(-c2ccc(Cl)cc2)c1CN1CCN(c2ccc(C(=O)NS(=O)(=O)c3ccccc3)c(Oc3cccc4[nH]ccc34)c2)CC1` [Example 29, 4-[4-({4′-chloro-3-[2-(dimethylamino)ethoxy]-1,1′-biphenyl-2-yl}methyl)piperazin-1-yl]-2-(1H-indol-4-yloxy)-N-(phenylsulfonyl)benzamide], 0.00227 µM.
`CC1(C)CCC(CN2CCN(c3ccc(C(=O)NS(=O)(=O)c4cccc([N+](=O)[O-])c4)c(Oc4ccc5[nH]ccc5c4)c3)CC2)=C(c2ccc(Cl)cc2)C1` [Example 30, 4-(4-{[2-(4-chlorophenyl)-4,4-dimethylcyclohex-1-en-1-yl]methyl}piperazin-1-yl)-2-(1H-indol-5-yloxy)-N-[(3-nitrophenyl)sulfonyl]benzamide] had a Ki of 0.000209 µM.
Take `CC1(C)CCC(CN2CCN(c3ccc(C(=O)NS(=O)(=O)c4ccccc4)c(Oc4ccc5[nH]ccc5c4)c3)CC2)=C(c2ccc(Cl)cc2)C1` [Example 31, 4-(4-{[2-(4-chlorophenyl)-4,4-dimethylcyclohex-1-en-1-yl]methyl}piperazin-1-yl)-2-(1H-indol-5-yloxy)-N-(phenylsulfonyl)benzamide]: the Ki was 0.0216 µM.
For `CC1(C)CCC(CN2CCN(c3ccc(C(=O)NS(=O)(=O)c4cccc(C#N)c4)c(Oc4ccc5[nH]ccc5c4)c3)CC2)=C(c2ccc(Cl)cc2)C1` [Example 32, 4-(4-{[2-(4-chlorophenyl)-4,4-dimethylcyclohex-1-en-1-yl]methyl}piperazin-1-yl)-N-[(3-cyanophenyl)sulfonyl]-2-(1H-indol-5-yloxy)benzamide] the value was 0.00594 µM; for `CC1(C)CCC(CN2CCN(c3ccc(C(=O)NS(=O)(=O)c4cccc(C(F)(F)F)c4)c(Oc4ccc5[nH]ccc5c4)c3)CC2)=C(c2ccc(Cl)cc2)C1` [Example 33, 4-(4-{[2-(4-chlorophenyl)-4,4-dimethylcyclohex-1-en-1-yl]methyl}piperazin-1-yl)-2-(1H-indol-5-yloxy)-N-{[3-(trifluoromethyl)phenyl]sulfonyl}benzamide], 0.00409 µM; for `CC1(C)CCC(CN2CCN(c3ccc(C(=O)NS(=O)(=O)c4cccc(Cl)c4)c(Oc4ccc5[nH]ccc5c4)c3)CC2)=C(c2ccc(Cl)cc2)C1` [Example 34, 4-(4-{[2-(4-chlorophenyl)-4,4-dimethylcyclohex-1-en-1-yl]methyl}piperazin-1-yl)-N-[(3-chlorophenyl)sulfonyl]-2-(1H-indol-5-yloxy)benzamide], 0.00514 µM.
